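Briefly, cells in 96-well plates were exposed to five compound concentrations for 48 h, and endpoints were estimated by linear interpolation. TGI: concentration producing complete growth inhibition.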
Columns and labels:
Assay in all cases: growth of human tumour cells (NCI), 48 h
RXF 393 renal = tested on: RXF 393 renal
MOLT-4 leukemia = tested on: MOLT-4 leukemia
SN12C renal = tested on: SN12C renal
SR leukemia = tested on: SR leukemia
MDA-MB-435 = tested on: MDA-MB-435
ACHN renal = tested on: ACHN renal
SF-295 CNS = tested on: SF-295 CNS
NCI-H522 lung = tested on: NCI-H522 lung
SK-OV-3 ovarian = tested on: SK-OV-3 ovarian
HT29 colon = tested on: HT29 colon

Measured: TGI

Cc1nc(CC#N)n[nH]1
> 100 µM: all assays above

From PubChem BioAssay (NCI)
